{"source": "patent US7524505B2", "about": "“Compositions and methods for dual therapies of hair graying and balding in follicular delivery systems” (Schweitzer Biotech Company Ltd., priority 2005, dated 2009)", "tested_on": "hair follicle organ", "experiment": "Hair follicle organ cultured in vitro, length of re-grown hair", "type": "cell-based, mice (F1 generation of C3H mated with BALB/C)", "details": "hair follicles cultured 12 days in the formula of amino acids and vitamins; length measured at Day 12; FIG. 7", "text": "At the age of 8 weeks, the F1 generation of C3H mated with BALB/C supplies the hair follicle material. By plucking the whiskers by depilating forceps, an anagen phase of the hair follicle can be induced. After three days of whisker plucking, the mice were killed and the hair follicle samples were harvested. Each selected hair follicle was then carefully isolated from the subcutaneous fat and the connective tissue surrounding the capsule was removed under a stereo-dissection microscope with fine forceps. We picked up the intact hair follicles with average size for the next step of culture, and which is in the early anagen stage, which is determined by the hair follicle conformation. Before culture, the hair fibre was first cut out at the surrounding line of the hair follicle to make the length measurement of hair growth much more easily in the future (FIG. 7). […]\nTen hair follicles were cultured in each treatment. […] The length of the hair growth beginning from the cutting site was measured at Day 12. […]\nHair follicle was observed by the Inverted microscope (Lieca DM, IL) and captured with the image by CCD connecting with a computer. The hair length was analyzed with the computer software: Northern Eclipse image system. The data of hair length were analyzed with the Duncan's new multiple range test by one way analysis of variance (ANOVA) using the SigmaStat program (2002).", "data": [{"substance": "HSCF-II: recombinant fusion of human SCF, linking peptide and IGF-I; 253 amino acids, SEQ ID NO:6", "values": [{"measurement": "effect on hair re-growth (hair length)", "value": "even better than each of SCF and IGF-I"}]}]}
